Series [1] can be described thus: Determination of carbamate half-lives: conversion of carbamate to 4-methoxyphenol in phosphate buffer, HPLC. The format is physicochemical. Here is the method:
[…] The resulting solution was heated at 37° while 20 μL samples were removed at intervals and injected directly into the HPLC injection port.
Unreacted carbamate and 4-methoxyphenol concentrations were determined by HPLC analysis with a C-18 reverse phase column using a mobile phase of 87.5% pH 2.4 phosphoric acid and 12.5% acetonitrile. The UV detector was set at 220 nm. The half-life (t1/2) is the time required for 50% conversion of carbamate to 4-methoxyphenol. Compounds (1), (2) and (3) are the preferred prodrugs for the treatment of melanomas.

The conditions of series [2]: after intra-arterial injection; cited from earlier work.
For series [3], the system named is melanoma cells that contain tyrosinase. The conditions noted are these: Riley 1985; cited from earlier work.
The test system of the next series is DNA synthesis. The settings on record: cited from earlier work.
The test system of the next series is melanoma. The settings on record: cited from earlier work.
A short description of another series: pKa. The format is physicochemical.
Series [4] can be described thus: Partition coefficient, octanol/pH 7.4 buffer. It counts as physicochemical.
[5] abbreviates: pH 7.4, pH 7.4 phosphate buffer, 37° (Table I), read-out: t1/2 (time required for 50% conversion of carbamate to 4-methoxyphenol).
Setting [6] is: pH 6.8, pH 6.8, 37° (Table I), read-out: t1/2.

Here are results for ten compounds from US4812590A, “Carbamates of 4-hydroxyanisole as prodrugs for chemotherapy of melanoma” (priority 1987, dated 1989).

Read-outs that look alike come from different tables or passages of the source.

For the compound `CNCCCN(C)C(=O)Oc1ccc(OC)cc1`, in series [1] (setting [5]), the half-life was determined as 24.1 h.

With `COc1ccc(OC(=O)N(C)CCN(C)C)cc1`, the half-life in series [1] (setting [6]) was found to be 3.23 h; in series [1] (setting [5]), 0.9 h.

In the case of `COc1ccc(O)cc1` [4-Hydroxyanisole, 4-hydroxyanisole], the half-life in blood in series [2] was 9 min. In addition, in series [3], the “oxidation by tyrosinase and toxicity to melanoma cells” value is “oxidized by tyrosinase to highly cytotoxic products and consequently is preferentially toxic to those melanoma cells that contain the enzyme”. Moreover, the “effect on DNA synthesis” value with DNA synthesis is recorded as “inhibits DNA synthesis”. In addition, in the series with melanoma (intra-arterial infusion), the “results of subsequent studies” value is reported as “more promising results”. In addition, in the series on melanoma (intralesional injection or i.v. infusion), the “results of early clinical trials” value is on record as “disappointing”.

Take `CCNCCN(CC)C(=O)Oc1ccc(OC)cc1`: in series [1] (setting [5]), the half-life is 2.38 h.

In the case of `CNCCNC(=O)Oc1ccc(OC)cc1` [(7)], in series [1] (setting [5]), the half-life was 12.4 h.

As for `COc1ccc(OC(=O)N(C)CCN)cc1`, the half-life in series [1] (setting [5]) was found to be 7.7 h.

For the compound `CNCCN(C)C(=O)Oc1ccc(OC)cc1` [drawing 8], the results for the half-life in series [1] (setting [6]) and in series [1] (setting [5]) were 2.33 h and 0.605 h, respectively.

As for `COc1ccc(OC(=O)NCCN)cc1` [(6)], the half-life in series [1] (setting [5]) amounted to 12.1 h.

Compound `CNCCN(C)C(=O)Oc1ccc(OC)cc1` [Compound IV] registered a pKa in “pKa” of 8.88. Moreover, the log distribution coefficient (logD) in series [4] is -1.02. Besides, in series [1] (pH 7.4, phosphate buffer, pH 7.4 (37°), read-out: half-life of release of 4-hydroxyanisole), the half-life turned out to be 0.6 h.

Regarding `COc1ccc(OC(=O)NCCCN)cc1.Cl` [(5), N-[3-Aminopropyl]carbamic acid 4-methoxyphenyl ester hydrochloride], the half-life in series [1] (setting [5]) is 12 h.

By pKa is commonly meant the negative logarithm of the acid dissociation constant. A high value points to a weaker acid or stronger base. The term logD denotes lipophilicity at a set pH, counting ionised and neutral species. A higher logD goes with a more lipophilic compound.
